In ChEMBL document CHEMBL1201862, “PubChem BioAssay data set” (2004):
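Results reflect a 48-hour exposure of cells in 96-well plates to compound at five concentrations. Here, GI50 denotes the concentration required for 50% inhibition of growth.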 The source made the active and inactive calls. Cut-off read from the data, not from the text of the source: active = GI50 up to about 1.1 µM and inactive = higher.

How the values were obtained:
Assay in all cases: NCI anticancer screen, dose series, 48 h
[1] = test system: HOP-18
[2] = test system: DMS-273
[3] = test system: LXFL 529
[4] = test system: XF498
[5] = test system: DMS-114
[6] = test system: KM-20L2
[7] = test system: BT-549
[8] = test system: DLD-1
[9] = test system: RXF 631

Measured: GI50

Cc1nc2cc3nc4ccccc4c(O)c3cc2s1
inactive: [1] 16.7 µM | [2] > 100 µM | [3] > 100 µM | [4] > 100 µM | [5] > 100 µM | [6] > 100 µM

O=c1cc(N2CCCC2)[nH]c(=O)n1-c1ccc(Cl)cc1
inactive: [7] > 100 µM

CCn1c(CCCc2nc3c(=O)n(C)c(=O)n(C)c3[nH]2)nc2c1c(=O)n(C)c(=O)n2C
inactive: [7] > 100 µM

C=C1C(=O)[C@@]23CC[C@@H]4[C@@]5(C)CCC[C@@]4(OC5=O)[C@@]2(C)CC[C@@H]1C3
inactive: [7] 1.3 µM

CC(=O)/C(=C\C1=CCCO1)C(=O)Nc1ccccc1C
inactive: [8] > 100 µM | [1] > 100 µM | [3] > 100 µM | [4] > 100 µM | [9] > 100 µM | [5] > 100 µM

Cc1c2n(c3ccccc13)CC1C2N(C)OC1(C)C (stereo not given)
inactive: [8] > 100 µM | [2] > 100 µM | [4] > 100 µM | [5] > 100 µM | [6] > 100 µM

C/C(=N\Nc1cc(CN2CCCC2)c(-c2ccc(Cl)cc2)nn1)C(=O)O
inactive: [7] > 100 µM

COC(=O)N/N=C(\C)CC(=O)Nc1cccc([N+](=O)[O-])c1
inactive: [8] > 100 µM | [2] > 100 µM | [3] > 100 µM | [4] > 100 µM | [5] > 100 µM | [6] > 100 µM

CCN1CC2=C(N=c3s/c(=C\c4ccc(Cl)cc4)c(=O)n3C2c2ccc(Cl)cc2)/C(=C/c2ccc(Cl)cc2)C1 (stereo not given)
inactive: [7] 26.4 µM

COc1cc2cc(C(=O)N3C[C@H](CCl)c4c3cc(N)c3ccccc43)[nH]c2c(OC)c1OC
inactive: [7] 1.38 µM

CCOC(=O)C1(c2ccccc2)CCCNCC1 (stereo not given)
inactive: [8] 58.5 µM | [1] > 100 µM | [2] 57.1 µM | [3] > 100 µM | [6] > 100 µM

CC[C@]12C=CCN3CCC4(c5cc(/N=N/c6ccccc6)c(OC)cc5N(C)[C@H]4[C@@](O)(C(=O)OC)[C@@H]1OC(C)=O)[C@@H]32 (stereo not given in full)
inactive: [7] 17.1 µM

CC1(C)OC2[C@@H](CO[C@@]3([C@@H](O)CCO)OC(C)(C)O[C@@H]23)O1 (stereo not given in full)
inactive: [7] > 100 µM

CCC1C(=O)OCc2c1cc1n(c2=O)CCC12OCCO2 (stereo not given)
inactive: [8] > 100 µM | [2] > 100 µM | [3] > 100 µM | [4] > 100 µM | [5] > 100 µM | [6] > 100 µM

O=C(O)c1cc(/N=C/c2ccccc2O)cc(C(=O)O)c1
inactive: [7] > 100 µM

COC(=O)C(CC(=O)Nc1ccc(C)cc1)C(=O)C(=O)Nc1c(C(C)C)cccc1C(C)C (stereo not given)
inactive: [8] > 100 µM | [3] 99.1 µM | [4] > 100 µM | [9] > 100 µM | [5] > 100 µM | [6] > 100 µM

O=[N+]([O-])c1cc(I)cc(/C=N/NS(=O)(=O)c2ccc(F)cc2)c1O
inactive: [8] 36.5 µM | [1] 19.7 µM | [2] 21.5 µM | [3] 20.7 µM | [9] 23.7 µM | [5] 24.2 µM | [6] 29.8 µM

COC(=O)C1(Cc2ccccc2)Cc2ccccc2C1O (stereo not given)
inactive: [7] > 100 µM

CC(=O)CCn1ncc(Cl)c(Cl)c1=O
inactive: [8] 11.2 µM | [1] 16.6 µM | [2] 17.7 µM | [3] 13.4 µM | [4] 19.7 µM | [6] 16.5 µM

c1ccc(COC[C@H]2C3OCC([C@H](OCc4ccccc4)[C@H]3OCc3ccccc3)N2Cc2ccccc2)cc1 (stereo not given in full)
inactive: [7] > 53.3 µM

O=C(O)C1C2CCC(O2)C1C(=O)Nc1cccc2cccnc12 (stereo not given)
inactive: [7] > 100 µM

COc1ccccc1OC(=O)/C=C/c1ccccc1
inactive: [7] > 100 µM

Cc1ccc(S(=O)(=O)C2c3nc4ccccc4cc3-c3nc4ccccc4nc32)cc1 (stereo not given)
inactive: [8] > 100 µM | [2] > 100 µM | [3] > 100 µM | [4] > 100 µM | [5] > 100 µM | [6] > 100 µM

O=[N+]([O-])c1ccc(NSc2ccccc2)cc1
inactive: [8] 24.8 µM | [1] > 100 µM | [2] 15.4 µM | [3] 14.3 µM | [4] 31.1 µM | [5] 21 µM | [6] 31.8 µM

CCCCCCCCCCCCCCCCCCNc1ccn(C2OC(CO)C(OP(=O)(O)OCC(O)COP(=O)(O)OCC3OC(n4cc(F)c(NCCCCCCCCCCCCCCCCCC)nc4=O)CC3O)C2O)c(=O)n1 (stereo not given)
inactive: [7] > 50 µM
